Laboratory results as given in patent US9427482B2, “Agents for clearing biomolecules from circulation” (KONINKLIJKE PHILIPS N.V., priority 2010, dated 2016).

How the values were obtained:
LS174T xenografts = assay: Biodistribution of ^125I-CC49-TCO 18 and ^177Lu-tetrazine 15 with one or two doses of 12 (Example 9); assay type: in vivo, mice
Protocol: LS174T tumor model. The human colon cancer cell line LS174T was obtained from the ATCC and maintained in Eagle's minimal essential medium (Sigma) supplemented with 10% heat inactivated fetal calf serum (Gibco), penicillin (100 U/mL), streptomycin (100 μg/mL) and […] Glutamax. Nude female Balb/C mice (20-25 g body weight, Charles River Laboratories) were inoculated subcutaneously with 5×10^6 cells in 100 μL sterile PBS.
Nude female mice (n=4) bearing LS174T xenografts (0.29±0.16 g) were injected ^125I-CC49-TCO 18 (t=0, 100 μg/100 μl per mouse) followed by one 160 μg/100 μl dose of galactose-MSA-tetrazine (12) 30 hours post mAb injection, or two 160 μg/100 μl 12 doses 30 and 48 hours post mAb injection. Two hours after the last clearing agent dose the mice were administered 8.52 μg of ^177Lu-labeled tetrazine 15 (10 equiv. with respect to mAb) and were sacrificed 3 hours post tetrazine injection. Blood was withdrawn by heart puncture and selected organs and tissues were harvested and blotted dry. The blood samples and tissues were weighed, added with 1 mL PBS and the radioactivity was counted in a gamma counter along with standards to determine the % ID/g. The differences between columns were analyzed using the two-tailed unpaired t-test (Graphpad Prism v. 5.01)

tumor = assay: Dual isotope biodistribution, mice pretargeted with CC49-TCO 20 (Example 10); assay type: in vivo; conditions: two doses of 12; 3 h after ^177Lu-tetrazine 15
Protocol: Tumor-bearing mice (ca. 100 mm^3 tumor size; n=4) were injected with ^125I-CC49 functionalized with 7.5 TCO-20 groups (100 μg/mouse, ca. 0.2 MBq). Thirty and 48 hours post-mAb injection the mice received one dose of clearing agent (galactose-MSA-tetrazine, 160 μg/dose) followed 2 h later by ^177Lu-tetrazine 15 (10 eq. with respect to the mAb, ca. 0.5 MBq). Three hours post-tetrazine injection the mice were anesthetized and sacrificed by cervical dislocation, blood was withdrawn by heart puncture, organs and tissues of interest were harvested and blotted dry. All collected samples were weighed and added with 1 mL PBS. The sample radioactivity was measured in a gamma-counter with a dual-isotope protocol (10-80 keV window for ^125I and 155-380 keV window for ^177Lu) along with standards to determine the percent injected dose per gram tissue (% ID/g).

[1] = Organ residence times from mouse biodistribution data (MIRD)
Protocol: Radiation dosimetry estimates were calculated for a male human model (standard 73 Kg adult) and for a voxelized mouse model by using the mouse biodistribution data (Example 12, Tables 7 and 8) according to the MIRD methodology. Activity concentration in these organs were converted in percent injected dose (% ID) and decay corrected to the time of injection. The % ID for blood, muscle and bone were estimated from the % ID/g of tissue and assuming 6%, 42% and 11% of the body weight. Whenever possible the time activity curves were fitted by a two-phase exponential clearance function. The fitted function was then integrated analytically to yield the organ residence times (Table 9). […] The time activity curve of the tumor was fitted by a mono-exponential uptake function defined as F(t)=a0(1−exp(−a1t)).
For ^177Lu-DOTA-CC49 some radioactivity was collected in the mixture of urine and feces. […] For the pretargeted ^177Lu-tetrazine a total of 97.8% ID was excreted.

[2] = Two doses of 12, 30 and 48 h post mAb

O=C([O-])CN1CCN(CC(=O)[O-])CCN(CC(=O)NCCOCCOCCOCCOCCOCCOCCOCCOCCOCCOCCOCCNC(=O)CCCC(=O)Nc2ccc(-c3nnc(-c4ccccn4)nn3)nc2)CCN(CC(=O)[O-])CC1.[177Lu+3] [^177Lu-tetrazine]
^177Lu-tetrazine T/blood (LS174T xenografts; One dose of 12, 30 h post mAb): 45.9±14.2 | ^177Lu-tetrazine T/bone (LS174T xenografts; One dose of 12, 30 h post mAb): 136.1 ± 68.7 | ^177Lu-tetrazine T/brain (LS174T xenografts; One dose of 12, 30 h post mAb): 935.9 ± 297.1 | ^177Lu-tetrazine T/heart (LS174T xenografts; One dose of 12, 30 h post mAb): 64.7 ± 18.0 | ^177Lu-tetrazine T/kidney (LS174T xenografts; One dose of 12, 30 h post mAb): 7.9 ± 3.3 | ^177Lu-tetrazine T/liver (LS174T xenografts; One dose of 12, 30 h post mAb): 32.4 ± 6.3 | ^177Lu-tetrazine T/lung (LS174T xenografts; One dose of 12, 30 h post mAb): 28.1 ± 11.8 | ^177Lu-tetrazine T/muscle (LS174T xenografts; One dose of 12, 30 h post mAb): 128.5 ± 83.7 | ^177Lu-tetrazine T/spleen (LS174T xenografts; One dose of 12, 30 h post mAb): 50.5 ± 10.9 | ^177Lu-tetrazine in blood (LS174T xenografts; One dose of 12, 30 h post mAb): 0.17 ± 0.06 % ID/g | ^177Lu-tetrazine in bone (LS174T xenografts; One dose of 12, 30 h post mAb): 0.06 ± 0.03 % ID/g | ^177Lu-tetrazine in brain (LS174T xenografts; One dose of 12, 30 h post mAb): 0.01 ± 0.00 % ID/g | ^177Lu-tetrazine in heart (LS174T xenografts; One dose of 12, 30 h post mAb): 0.12 ± 0.03 % ID/g | ^177Lu-tetrazine in kidney (LS174T xenografts; One dose of 12, 30 h post mAb): 1.06 ± 0.39 % ID/g | ^177Lu-tetrazine in liver (LS174T xenografts; One dose of 12, 30 h post mAb): 0.23 ± 0.00 % ID/g | ^177Lu-tetrazine in lung (LS174T xenografts; One dose of 12, 30 h post mAb): 0.28 ± 0.05 % ID/g | ^177Lu-tetrazine in muscle (LS174T xenografts; One dose of 12, 30 h post mAb): 0.08 ± 0.04 % ID/g | ^177Lu-tetrazine in spleen (LS174T xenografts; One dose of 12, 30 h post mAb): 0.15 ± 0.03 % ID/g | ^177Lu-tetrazine in tumor (LS174T xenografts; One dose of 12, 30 h post mAb): 7.48 ± 1.46 % ID/g | ^177Lu-tetrazine T/bone (LS174T xenografts; [2]): 123.3 ± 80.3 | ^177Lu-tetrazine T/brain (LS174T xenografts; [2]): 1146.7 ± 122.9 | ^177Lu-tetrazine T/heart (LS174T xenografts; [2]): 142.4 ± 18.5 | ^177Lu-tetrazine T/kidney (LS174T xenografts; [2]): 3.4 ± 0.4 | ^177Lu-tetrazine T/liver (LS174T xenografts; [2]): 30.8 ± 2.9 | ^177Lu-tetrazine T/lung (LS174T xenografts; [2]): 26.2 ± 3.9 | ^177Lu-tetrazine T/muscle (LS174T xenografts; [2]): 140.9 ± 67.1 | ^177Lu-tetrazine T/spleen (LS174T xenografts; [2]): 63.7 ± 9.2 | ^177Lu-tetrazine in blood (LS174T xenografts; [2]): 0.03 ± 0.00 % ID/g | ^177Lu-tetrazine in bone (LS174T xenografts; [2]): 0.08 ± 0.08 % ID/g | ^177Lu-tetrazine in brain (LS174T xenografts; [2]): 0.00 ± 0.00 % ID/g | ^177Lu-tetrazine in heart (LS174T xenografts; [2]): 0.04 ± 0.00 % ID/g | ^177Lu-tetrazine in kidney (LS174T xenografts; [2]): 1.58 ± 0.14 % ID/g | ^177Lu-tetrazine in liver (LS174T xenografts; [2]): 0.18 ± 0.02 % ID/g | ^177Lu-tetrazine in lung (LS174T xenografts; [2]): 0.21 ± 0.03 % ID/g | ^177Lu-tetrazine in muscle (LS174T xenografts; [2]): 0.05 ± 0.03 % ID/g | ^177Lu-tetrazine in spleen (LS174T xenografts; [2]): 0.09 ± 0.01 % ID/g | ^177Lu-tetrazine in tumor (LS174T xenografts; [2]): 5.38 ± 0.48 % ID/g | ^177Lu-tetrazine Blood (tumor): 0.03 ± 0.00 % ID/gram | ^177Lu-tetrazine Bone (tumor): 0.08 ± 0.04 % ID/gram | ^177Lu-tetrazine Brain (tumor): 0.01 ± 0.00 % ID/gram | ^177Lu-tetrazine Heart (tumor): 0.05 ± 0.01 % ID/gram | ^177Lu-tetrazine Kidney (tumor): 1.50 ± 0.24 % ID/gram | ^177Lu-tetrazine Liver (tumor): 0.19 ± 0.02 % ID/gram | ^177Lu-tetrazine Lung (tumor): 0.24 ± 0.02 % ID/gram | ^177Lu-tetrazine Muscle (tumor): 0.03 ± 0.00 % ID/gram | ^177Lu-tetrazine Spleen (tumor): 0.09 ± 0.01 % ID/gram | ^177Lu-tetrazine Tumor (tumor): 9.25 ± 2.16 % ID/gram | ^177Lu-tetrazine Tumor/organ Blood (tumor): 304 ± 80 | ^177Lu-tetrazine Tumor/organ Bone (tumor): 142 ± 59 | ^177Lu-tetrazine Tumor/organ Brain (tumor): 1674 ± 243 | ^177Lu-tetrazine Tumor/organ Heart (tumor): 187 ± 20 | ^177Lu-tetrazine Tumor/organ Kidney (tumor): 6 ± 2 | ^177Lu-tetrazine Tumor/organ Liver (tumor): 50 ± 10 | ^177Lu-tetrazine Tumor/organ Lung (tumor): 39 ± 8 | ^177Lu-tetrazine Tumor/organ Muscle (tumor): 328 ± 96 | ^177Lu-tetrazine Tumor/organ Spleen (tumor): 108 ± 22 | Residence time Bladder Wall [1]: 0.009 h | Residence time Blood [1]: 0.067 h | Residence time Bone [1]: 0.239 h | Residence time Brain [1]: 0.001 h | Residence time Heart Wall [1]: 0.001 h | Residence time Kidneys [1]: 0.293 h | Residence time Large Intestines [1]: 0.23 h | Residence time Liver [1]: 0.302 h | Residence time Lungs [1]: 0.031 h | Residence time Muscle [1]: 0.19 h | Residence time Ovaries [1]: 0.0034 h | Residence time Small Intestines [1]: 0.082 h | Residence time Spleen [1]: 0.023 h | Residence time Stomach [1]: 0.032 h | Residence time Tumor [1]: 3.93 h | Residence time Uterus [1]: 0.026 h | Residence time remainder of the body [1]: 1 h | Residence time Red Marrow ([1]; τmarrow=0.08 τblood): 0.0054 h
